According to publication PMC7170309, “Imidazopyridine-fused [1,3]diazepinones: modulations of positions 2 to 4 and their impacts on the anti-melanoma activity” (Journal of Enzyme Inhibition and Medicinal Chemistry, 2020):

Columns and labels:
K-562 = test: NCI-60 SRB assay, K-562 (Leukemia); type: cell-based, human; details: 10 µM, 48 h; for G%: growth vs untreated control
Method: Primary anticancer assay was performed on a panel of 60 human cancer cell lines derived from nine neoplastic diseases, in accordance with the protocol of the Drug Evaluation Branch, National Cancer Institute, Bethesda, Maryland, USA[22]. Cells were incubated with tested compounds at 10 µM for 48 h. The growth percentage was evaluated spectrophotometrically using a protein binding dye, SRB. Results for each tested compound were reported as the percent of growth of treated cells when compared to untreated control cells.
To better compare the activity profile of these two series of compounds, compounds 5 and 8 were selected and then evaluated towards a panel of sixty cancer cell lines corresponding to nine different cancer types, i.e. leukaemia, melanoma, as well as lung, colon, central nervous system, ovarian, renal, prostate and breast cancers (NCI evaluation). Indeed, it is now well established that the growth inhibitory patterns of anticancer drugs against the NCI-60 cell line panel correlated well with their modes of action. For example, compounds that bind to tubulin have similar growth inhibition patterns regardless of which site on tubulin they bind[30]. […] Compounds were tested using the sulforhodamine B (SRB) assay that provides a direct cell density index. The amount of dye incorporated by the cells increases with the increase of the total protein biomass. Cells were incubated for 48 h with compounds at 10 µM concentration, then cell growth was evaluated spectrophotometrically and presented as the percent of untreated control cells. Values of the most sensitive cell lines were compared to those obtained with JMV5038 (Figure 4, for all data see SI).

[1] = tested on: NIH-3T3 non-cancerous cells; parameters: method as in PMID 24561668; details: even at 100 µM; cited from earlier work
[2] = Calculated physicochemical parameters (molsoft cheminformatic tool); details: predicted
Method: Data set of physicochemical properties (cLogP, TPSA and molecular volume, Table 2) were calculated using the online available molsoft cheminformatic tool[23]. IC50 values of the compounds included in the test are presented in Table 1 for the correlations between IC50 and physicochemical properties of compounds modified in position 2 (Figure 2), and in Table S1 (SI) for the correlations between in vitro anti-cancer activity of JMV5038, compound 5 and […] on the NCI cell line panel (Figure 4). Pearson’s correlation coefficient r and level of significant p values were calculated using Origin Pro 2019.

SMILES	Mean G% - G% (K-562)	G% (K-562)	cytotoxic activity on NIH-3T3 fibroblasts [1]	molecular volume increase compared to JMV5038 [2]
C[C@@H]1NC(c2csc3ccccc23)=Nc2nc3ccccn3c2C1=O [Compound 8, (4S)-4-methyl-2-benzothiophen-3-yl-3,4-dihydro-5H-pyrido[1’,2’:1,2]imidazo[4,5-d][1,3]diazepin-5-one]	-6,34%	81,21%		
C[C@@H]1NC(c2ccc(Br)cc2)=Nc2nc3ccccn3c2C1=O [JMV5038]	29,92%	24,32%	no significant cytotoxic activity	
C[C@@H]1NC(c2ccc(N=[N+]=[N-])cc2)=Nc2nc3ccccn3c2C1=O [Compound 5, (4S)-4-methyl-2-(4-azidophenyl)-3,4-dihydro-5H-pyrido[1’,2’:1,2]imidazo[4,5-d][1,3]diazepin-5-one]				4%
